Molecules are shown by their SMILES.

For this test, the target named is T1, recombinant full-length human prolyl endopeptidase (PREP) (Homo sapiens, UniProt P48147).
T1 construct: To recombinant full-length human prolyl endopeptidase (PREP, R&D-Systems, 4308-SE); purchased R&D-Systems 4308-SE
T1 sequence (P48147 1-710): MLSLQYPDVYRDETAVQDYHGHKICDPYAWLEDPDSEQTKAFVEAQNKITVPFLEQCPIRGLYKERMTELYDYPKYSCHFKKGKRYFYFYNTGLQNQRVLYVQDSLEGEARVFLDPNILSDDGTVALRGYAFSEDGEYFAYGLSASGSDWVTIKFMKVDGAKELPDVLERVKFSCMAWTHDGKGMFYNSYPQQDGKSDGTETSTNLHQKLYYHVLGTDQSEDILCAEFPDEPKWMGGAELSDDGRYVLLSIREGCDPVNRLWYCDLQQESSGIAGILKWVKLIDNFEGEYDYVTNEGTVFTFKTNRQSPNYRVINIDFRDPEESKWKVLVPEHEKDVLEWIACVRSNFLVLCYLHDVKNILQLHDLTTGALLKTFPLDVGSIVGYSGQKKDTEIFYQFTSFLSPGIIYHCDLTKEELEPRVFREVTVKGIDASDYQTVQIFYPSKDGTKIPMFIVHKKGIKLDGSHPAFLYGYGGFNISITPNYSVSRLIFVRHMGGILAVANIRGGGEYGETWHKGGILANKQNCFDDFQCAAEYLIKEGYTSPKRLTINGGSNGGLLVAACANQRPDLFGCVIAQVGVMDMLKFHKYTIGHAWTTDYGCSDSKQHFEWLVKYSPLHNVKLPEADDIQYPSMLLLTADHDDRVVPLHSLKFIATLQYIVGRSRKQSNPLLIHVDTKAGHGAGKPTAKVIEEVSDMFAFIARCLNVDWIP
Briefly: Biochemical human prolyl endopeptidase (PREP) assay with fluorescently labelled substrate. The note with it: substrate Z-Gly-Pro-AMC 50 μM, 32° C., 60 min; some as mean values from multiple independent determinations. As for the experimental part: B-1 Biochemical Human Prolyl Endopeptidase (PREP) Assay for Identification of Inhibitors of PREP Activity Using a Fluorescently Labelled Substrate Principle of the Assay:
The enzymatic conversion of the fluorescent peptide substrate was observed on the basis of the measurement of the fluorescence intensity. The enzyme activity was determined by the ascertaining of the initial slope in the increase in fluorescence. Compounds that inhibit PREP were identified on the basis of the decrease in the initial slope compared to a reaction mixture without test compound.
Determination of Activity:
IC50 values were determined by the plotting of the percentage PREP activity against the concentration of the test substance by interpolation.
To recombinant full-length human prolyl endopeptidase (PREP, R&D-Systems, 4308-SE; final concentration, for example, 0.4 nM, volume: 25 μl) in reaction buffer (50 mM Tris-HCl, pH 7.5; 150 mM NaCl; 0.13% BSA, 5 mM EDTA, 3 mM GSH, 0.005% Brij-35) was added a test compound (in DMSO, in an appropriate final concentration range from 1 nM to 30 μM, volume: 1 μl) in a well of a 384-well microtitre plate. The reaction was initiated by adding the substrate Z-Gly-Pro-AMC (final concentration 50 μM; Z=carboxybenzyl; AMC=7-amino-4-methylcoumarin, volume: 25 μl). The progress of the PREP reaction was observed by measuring the fluorescence intensity in a Tecan SAFIRE II plate spectrophotometer at 32° C. over a period of 60 min (excitation wavelength: 360 nm, emission wavelength: 465 nm).
Table B-1 below collates the IC50 values thus obtained from the human prolyl endopeptidase assay for individual working examples of the invention (some as mean values from multiple independent individual determinations).
In the case of `O=C([C@@H]1CCCc2nn(Cc3ccc(F)cc3F)c(=O)n21)N1CCC(F)(F)C1` [Example 487, (5S)-2-(2,4-Difluorobenzyl)-5-[(3,3-difluoropyrrolidin-1-yl)carbonyl]-5,6,7,8-tetrahydro[1,2,4]triazolo[4,3-a]pyridin-3(2H)-one], the 50% inhibitory concentration (IC50) was determined as 0.725 nM.
As for `O=C([C@@H]1CCCc2nn(CC3(c4cccc(Cl)n4)CC3)c(=O)n21)N1CCC(F)(F)C1` [Example 349, (5S)-2-{[1-(6-Chloropyridin-2-yl)cyclopropyl]methyl}-5-[(3,3-difluoropyrrolidin-1-yl)carbonyl]-5,6,7,8-tetrahydro[1,2,4]triazolo[4,3-a]pyridin-3(2H)-one], the 50% inhibitory concentration (IC50) was 1.45 nM.
Take `Cn1ccc(Cn2nc3n(c2=O)C(C(=O)N2CCCC2)CCC3)n1` (racemic) [Example 21, (5RS)-2-[(1-Methyl-1H-pyrazol-3-yl)methyl]-5-(pyrrolidin-1-ylcarbonyl)-5,6,7,8-tetrahydro[1,2,4]triazolo[4,3-a]pyridin-3(2H)-one]: the 50% inhibitory concentration (IC50) was 6.9 nM.
As for `Cc1ccc(C(=O)Cn2nc3n(c2=O)[C@H](C(=O)N2CC[C@H](F)C2)CCC3)cc1` [Example 516, (5S)-5-{[(3S)-3-Fluoropyrrolidin-1-yl]carbonyl}-2-[2-(4-methylphenyl)-2-oxoethyl]-5,6,7,8-tetrahydro[1,2,4]triazolo[4,3-a]pyridin-3(2H)-one], the IC50 is 4.2 nM.
Consider `O=C([C@@H]1CCCc2nn(CC3(c4ccc(F)cc4F)CC3)c(=O)n21)N1CC[C@H](F)C1` [Example 358], for which the IC50 came out at 0.068 nM.
In the case of `O=C([C@@H]1CCCc2nn(Cc3ccc(C(F)(F)F)c(Cl)c3)c(=O)n21)N1CC[C@H](F)C1` [Example 461, (5S)-2-[3-Chloro-4-(trifluoromethyl)benzyl]-5-{[(3S)-3-fluoropyrrolidin-1-yl]carbonyl}-5,6,7,8-tetrahydro[1,2,4]triazolo[4,3-a]pyridin-3(2H)-one], the half-inhibitory concentration (IC50) was 0.625 nM.
On to `O=C([C@@H]1CCCc2nn(Cc3ccc(C(F)F)nc3)c(=O)n21)N1CC[C@H](F)C1` [Example 206, (5S)-2-{[6-(Difluoromethyl)pyridin-3-yl]methyl}-5-{[(3S)-3-fluoropyrrolidin-1-yl]carbonyl}-5,6,7,8-tetrahydro[1,2,4]triazolo[4,3-a]pyridin-3(2H)-one], for which the IC50 stood at 1.2 nM.
For `O=C([C@@H]1CCCc2nn(Cc3csc(C(F)(F)F)n3)c(=O)n21)N1CCC(F)(F)C1` [Example 364, (5S)-5-[(3,3-Difluoropyrrolidin-1-yl)carbonyl]-2-{[2-(trifluoromethyl)-1,3-thiazol-4-yl]methyl}-5,6,7,8-tetrahydro[1,2,4]triazolo[4,3-a]pyridin-3(2H)-one], the IC50 was found to be 29 nM.
For the molecule `O=C([C@@H]1CCCc2nn(Cc3cnc(C(F)(F)F)c(Cl)c3)c(=O)n21)N1C[C@@H](F)[C@@H](F)C1` [Example 440, (5S)-2-{[5-Chloro-6-(trifluoromethyl)pyridin-3-yl]methyl}-5-{[(3R,4S)-3,4-difluoropyrrolidin-1-yl]carbonyl}-5,6,7,8-tetrahydro[1,2,4]triazolo[4,3-a]pyridin-3(2H)-one], the IC50 came to 0.715 nM.
For `O=C([C@@H]1CCCc2nn(CC3(c4ccc(C(F)(F)F)cc4)CC3)c(=O)n21)N1CC(F)C1` [Example 527, (5S)-5-[(3-Fluoroazetidin-1-yl)carbonyl]-2-({1-[4-(trifluoromethyl)phenyl]cyclopropyl}methyl)-5,6,7,8-tetrahydro[1,2,4]triazolo[4,3-a]pyridin-3(2H)-one], the concentration for half-maximal inhibition (IC50) was found to be 1.2 nM.
The result for `O=C([C@@H]1CCCc2nn(Cc3ccc(C(F)F)nc3)c(=O)n21)N1CC(F)C1` [Example 209, (5S)-2-{[6-(Difluoromethyl)pyridin-3-yl]methyl}-5-[(3-fluoroazetidin-1-yl)carbonyl]-5,6,7,8-tetrahydro[1,2,4]triazolo[4,3-a]pyridin-3(2H)-one] reads 5.5 nM.

In general, IC50 refers to the concentration that inhibits the measured activity by half.

The record behind these values is patent US10722501B2 (BAYER AKTIENGESELLSCHAFT, priority 2016, dated 2020).
